# What was measured:
# VSMC cells = assay: Chemotactic migration of VSMC (Transwell); type: cell-based, human; details: 100 nM for 24 hours, ox-LDL 40 μg/ml
# Protocol: Chemotactic migration is another characteristic of atherosclerosis and can be used as another line of evidence of atherosclerotic change for the cultured VSMC cells. This experiment was assayed by using a microchemotactic chamber and polycarbonate filters with pores of […] in diameter (Transwell, Millipore). After incubated with microRNA-195 (Pre-miR miRNA, hsa-miR-195 (product ID PM10827), Ambion Inc.) (100 nM) or an inhibitor (100 nM) for 24 hours, the VSMC cells were trypsinized and suspended with a serum free medium. A volume (300 μl) of a 1×10^4 cell suspension was placed in the upper chamber, the medium containing ox-LDL (40 μg/ml, each) was placed in the lower and upper chamber. The cell suspension was incubated at a temperature of 37° C. under 5% CO2 in air for 24 hours. After incubation, the VSMC cells on the upper side of the filter were scraped off, and the cells that had directly migrated to the lower side of the filter were trypsinized. The cells were fixed with methanol and stained with a Giemsa solution (Merck). Quantification of chemotactic migration was performed using the hemocytometer.
# apoE−/− mice = test system: apoE−/− mice
# Text: Lentivector Expression System was purchased from System Biosciences. The microRNA expression vectors pCDH-CMV-MCS-EF1- GreenPuro vector (System Biosciences, SBI) contain a CMV-driven EGFP reporter. The full length sequence of microRNA-195 was amplified from genomic DNA by polymerase chain reaction (PCR). Primer pairs for microRNA expression vectors were microRNA-195 forward: 5′-[…]-3′ (SEQ ID NO: 3), and reverse: 5′-[…]-3′ (SEQ ID NO: 4). The PCR products were inserted to the microRNA expression vectors. The clones carrying microRNA-195 was named pCDH-miR-195. The pCDH vector was used as control.
# The miRNA expression vectors (pCDH-miR-195 and pCDH mock vector) and Lentivirus Package plasmid mix (System Biosciences, SBI) were cotransfected into 293TN cells with PureFection™ Transfection Reagent (System Biosciences; Mountain View, Calif., USA), and Lenti-X Concentrator (Clontech, USA) was used for concentration. Infectious titers were determined by counting GFP positive-293T cells using a fluorescence microscope.
# 0.1 ml PBS with 10^7 IFU Lentivirus containing pCDH-miR-195 or a control vector was injected to the tail veil of the apoE−/− mice that were under a high fat diet. The injection was repeated once a week for a total of 12 weeks. Changes in body weight of the apoE−/− mice treated with Lentivirus containing pCDH-miR-195 (the microRNA-195 treatment group) and the apoE−/− mice treated with Lentivirus containing the control vector (the control group) were recorded every week and are shown in FIG. 7. When the experiment was completed, the mice of the microRNA-195 treatment group and the mice of the control group were sacrificed.
# Biochemical indexes, such as blood urea nitrogen (BUN) and creatinine (CRE) for renal function, GOT (AST) and GPT (ALT) for liver function, fasting blood sugar (GLU), total cholesterol (T-CHO), high density lipoprotein (HDL), low density lipoprotein (LDL) and triglyceride (TG) of the blood of mice of the microRNA-195 treatment group and mice of the control group were determined and are shown in Table 2, respectively. Indexes for weight of various organs to body weight (organ weight/body weight) of mice of the microRNA-195 treatment group and the mice of the control group were determined and are shown in Table 3, respectively.
# VCAM-1 = assay: Real-time qPCR of VCAM-1 mRNA in HUVECs co-cultured with transfected HASMCs; type: cell-based, human; details: co-cultured with microRNA-195-transfected HASMCs
# Protocol: (§1) HASMCs were transfected with negative control microRNA or microRNA-195 with or without the presence of oxLDL. MicroRNA-195-transfected HASMCs were co-cultured with HUVEC. Real-time qPCR analysis of mRNA levels for genes surrogating endothelial functions as well as atherosclerosis, such as vascular cell adhesion molecule-1 (VCAM-1), […] (TNF-a) and interleukin-6 (IL-6), and vasodilation gene, endothelial nitric oxide synthase (eNOS), were determined in HUVECs.
# TNF-a = assay: Real-time qPCR of TNF-a mRNA in HUVECs co-cultured with transfected HASMCs; type: cell-based, human; details: co-cultured with microRNA-195-transfected HASMCs
# Protocol: as §1
# eNOS = assay: Real-time qPCR of eNOS mRNA in HUVECs co-cultured with transfected HASMCs; type: cell-based, human; details: co-cultured with microRNA-195-transfected HASMCs
# Protocol: as §1
# [1] = Lentivirus containing pCDH-miR-195, 12 weeks, high fat diet
# [2] = Lentivirus containing pCDH-miR-195 vs control group, from Table 2
# [3] = blood, Lentivirus containing pCDH-miR-195 10^7 IFU tail vein weekly, 12 weeks, high fat diet
substance,measurement,setting,value
"microRNA-195: Pre-miR miRNA, hsa-miR-195 (product ID PM10827), Ambion Inc., which mimics precursor for mature human miR-195; mimic 5′-UAGCAGCACAGAAAUAUUGGC-3′ (SEQ ID NO: 5) (chemistry not given here)","chemotactic migration, percentage of migrated cells compared to control medium cells",VSMC cells,137.6%
same,"Heart weight/body weight, average",apoE−/− mice; [1],0.49%
same,"Kidney weight/body weight, average",apoE−/− mice; [1],1.20%
same,"Liver weight/body weight, average",apoE−/− mice; [1],3.35%
same,"Lung weight/body weight, average",apoE−/− mice; [1],0.72%
same,"Spleen weight/body weight, average",apoE−/− mice; [1],0.32%
same,HDL increase,apoE−/− mice; [2],77%
same,triglyceride decrease,apoE−/− mice; [2],26%
same,blood sugar level versus placebo treated animals,"apoE−/− mice; Lentivirus containing pCDH-miR-195 vs control vector, high-fat diet",lower
same,control of the increase of body weight,"apoE−/− mice; Lentivirus containing pCDH-miR-195 vs control vector, high-fat diet, 12 weeks",better than the placebo
same,"BUN (blood urea nitrogen), average",apoE−/− mice; [3],21.5
same,"CRE (creatinine), average",apoE−/− mice; [3],0.7
same,"GLU (fasting blood sugar), average",apoE−/− mice; [3],166.5
same,"GOT (AST), average",apoE−/− mice; [3],118.5
same,"GPT (ALT), average",apoE−/− mice; [3],28.5
same,"HDL (high density lipoprotein), average",apoE−/− mice; [3],11.5
same,"T-CHO (total cholesterol), average",apoE−/− mice; [3],711.5
same,"TG (triglyceride), average",apoE−/− mice; [3],141
same,VCAM-1 mRNA level in HUVECs,VCAM-1,suppresses
same,TNF-a mRNA level in HUVECs,TNF-a,suppresses
same,eNOS mRNA level in HUVECs,eNOS,increases
